# Source: patent US6180156A, “Acid salts of N-[N-(3,3-dimethylbutyl)-L-α-aspartyl]-L-phenylalanine 1-methyl ester” (The NutraSweet Company, priority 1998, dated 2001)
# Where a name gives a salt, the structure may show the parent alone. Read-outs that look alike come from different tables or passages of the source. Residues, ends and D or L forms follow the SMILES beside them.
# What was measured:
# [1] = compared with aspartame; cited from earlier work
# [2] = on a weight basis, cited from earlier work
# [3] = compared with aspartame, under some pH conditions; cited from earlier work
# [4] = Dissolution in water (time to complete dissolution); type: physicochemical
# Protocol: N-[N-(3,3-dimethylbutyl)-L-α-aspartyl]-L-phenylalanine 1-methyl ester (25.0 g) was slurried in 150 ml of water. To the stirred slurry was slowly added concentrated hydrochloric acid (5.5 ml, 0.0661 mol). After approximately 10 minutes all the solid had dissolved. The clear solution was then freeze dried. […] Yield: 27.34 g white solid (99.7%). The hydrochloride salt (1 g) dissolved in water (100 ml) in 70 seconds. 1H NMR (CD3 CN) δ 0.89 (s, 9H), 1.64 (m, 2H), 3.01 (m, 6H), 3.68 (s, 3H), 4.16 (t, 1H), 4.67 (m, 1H), 7.26 (m, 5H), 8.27 (d, 1H). Anal. Calcd for C20 H31 ClN2 O5.H2 O: C, 55.48; H, 7.69; N, 6.47; Cl, 8.19. Found: C, 55.95; H, 7.59; N, 6.55; Cl, 8.35.
# N-[N-(3,3-dimethylbutyl)-L-α-aspartyl]-L-phenylalanine 1-methyl ester (10.0 g) was slurried in 100 ml of water. An equimolar amount of 85% phosphoric acid solution was added. After all the solid dissolved, the solution was freeze dried. […] Yield 12.33 g white solid (98.0%). The phosphate salt (0.1 g) dissolved in water (100 ml) in less than 30 seconds (visual observation) and about 90 seconds by spectrophotometric analysis. 1H NMR (CD3 CN) δ 0.89 (s, 9H), 1.55 (m, 2H), 2.84 (m, 5H), 3.19 (m, 1H), 3.67 (s, 3H), 4.06 (t, 1H), 4.70 (m, 1H), 7.27 (m, 5H), 8.03 (d, 1H). Anal. Calcd for C20 H33 N2 O9 P.H2 O: C, 48.58; H, 7.15; N, 5.67; P, 6.26. Found: C, 48.15: H, 7.08; N, 5.60; P, 6.57.
# N-[N-(3,3-dimethylbutyl)-L-α-aspartyl]-L-phenylalanine 1-methyl ester (25.0 g) was slurried in 100 ml of water and concentrated sulfuric acid (3.67 ml) was added slowly. After several minutes of stirring some material remained undissolved. Therefore, 75 ml of acetone was added. The resulting clear solution was stirred for 30 minutes, then the acetone was removed under reduced pressure on a rotary evaporator. The contents of the flask remained a clear solution. […] Yield: 30.04 g (95%). The sulfate salt (0.1 g) dissolved in water (100 ml) in less than 20 seconds (visual observation). 1H NMR (CD3 CN) δ 0.89 (s,9H), 1.57 (m, 2H), 2.91 (m, 5H), 3.20 (m, 1H), 3.68 (s, 3H), 4.15 (t, 1H), 4.72 (m, 1H), 7.27 (m, 5H), 7.68 (d, 1H). Anal. Calcd for C20 H32 N2 O9 S.H2 O: C, 48.56; H, 6.94; N, 5.66; S, 6.48. Found C, 48.93; H, 7.02; N, 5.78; S, 6.50.
# N-[N-(3,3-dimethylbutyl)-L-α-aspartyl]-L-phenylalanine 1-methyl ester (5.00 g) was dissolved in 75 ml of acetone. Citric acid (2.53 g) was dissolved in 50 ml of water, and the acetone solution was added. This formed a clear, colorless solution that was stirred for 1 hour. The acetone was evaporated under reduced pressure. The resulting slurry was freeze dried to obtain 7.5 g of a white solid. The citrate salt (0.1 g) dissolved in water (100 ml) in 90 seconds (visual observation). δ (CD3 CN) 0.89 (s, 9H), 1.53 (m, 2H), 2.83 (m, 10H), 3.20 (m, 1H), 3.67 (s, 3H), 4.04 (t, 1H), 4.21 (m, 1H), 7.27 (m, 5H), 7.79 (d, 1H). Anal. Calcd for C26 H38 N2 O12.H2 O: C, 53.05; H, 6.86; N, 4.76. Found: C, 53.10; H, 6.88; N, 4.41.
# N-[N-(3,3-dimethylbutyl) -L-α-aspartyl]-L-phenylalanine 1-methyl ester (0.05-0.1 g) was dissolved in water (100 mL). The compound completely dissolved in 5-7 minutes (visual observation). The dissolution of 1.0 g of N-[N-(3,3-dimethylbutyl)-L-α-aspartyl]-L-phenylalanine 1-methyl ester in 100 mL of water required approximately 45 minutes.
# [5] = amino group (primary in aspartame, secondary in neotame); cited from earlier work
# [6] = cited from earlier work
# [7] = Aqueous solubility compared to the starting material / water solubility; type: physicochemical; conditions: starting material = neotame
# [8] = 0.1 g in water (100 ml), visual observation
compound,measurement,setting,value
"COC(=O)[C@H](Cc1ccccc1)NC(=O)[C@H](CC(=O)O)NCCC(C)(C)C [N-[N-(3,3-dimethylbutyl)-L-α-aspartyl]-L-phenylalanine 1-methyl ester]",solubility in organic solvents,[1],much higher solubility in organic solvents than aspartame
same,sweetening potency relative to aspartame,[2]; times that of aspartame,at least 50 times
same,sweetening potency relative to sucrose,[2]; times that of sucrose,"about 10,000 times"
same,stability,[3],higher stability than aspartame under some pH conditions
same,"dissolution time in water, completely dissolved (visual observation)","[4]; 0.05-0.1 g in water (100 mL), visual observation",5 to 7 min
same,dissolution time in water,[4]; 1.0 g in 100 mL of water,approximately 45 minutes
same,pKa,[5],8.1
same,solubility in water,[6]; compared with aspartame,much lower solubility in water
same,solubility in water,"[6]; in words, no comparator",sparingly soluble in water
COC(=O)[C@H](Cc1ccccc1)NC(=O)[C@@H](N)CC(=O)O [aspartame] (H-Asp-Phe-OMe),pKa,[5],7.7
"COC(=O)[C@H](Cc1ccccc1)NC(=O)[C@H](CC(=O)O)NCCC(C)(C)C [citrate salt, Citrate Salt of N-[N-(3,3-dimethylbutyl)-L-α-aspartyl]-L-phenylalanine 1-methyl Ester]",dissolution time in water (visual observation),[4]; [8],90 s
"COC(=O)[C@H](Cc1ccccc1)NC(=O)[C@H](CC(=O)O)NCCC(C)(C)C [hydrochloride salt, Hydrochloride Salt of N-[N-(3,3-dimethylbutyl)-L-α-aspartyl]-L-phenylalanine 1-methyl Ester]",dissolution time in water,[4]; 1 g in water (100 ml),70 s
same,aqueous solubility compared to the starting material,[7],greatly increased aqueous solubility compared to the starting material
"COC(=O)[C@H](Cc1ccccc1)NC(=O)[C@H](CC(=O)O)NCCC(C)(C)C [phosphate salt, Phosphate Salt of N-[N-(3,3-dimethylbutyl)-L-α-aspartyl]-L-phenylalanine 1-methyl Ester]",dissolution time in water by spectrophotometric analysis,"[4]; 0.1 g in water (100 ml), spectrophotometric analysis",about 90 seconds
same,dissolution time in water (visual observation),[4]; [8],less than 30 seconds
same,aqueous solubility compared to the starting material,[7],greatly increased aqueous solubility compared to the starting material
"COC(=O)[C@H](Cc1ccccc1)NC(=O)[C@H](CC(=O)O)NCCC(C)(C)C [sulfate salt, Sulfate Salt of N-[N-(3,3-dimethylbutyl)-L-α-aspartyl]-L-phenylalanine 1-methyl Ester]",dissolution time in water (visual observation),[4]; [8],less than 20 seconds
same,aqueous solubility compared to the starting material,[7],greater aqueous solubility compared to the starting material
